According to ChEMBL document CHEMBL1122370 (J Med Chem, 1983):
Where “and” joins values, the source holds several entries; their conditions need not be identical. Equal entries are not always repeated.

Columns and labels:
Mus musculus [1] = assay: Average weight of the mouse after treating with 90 mg/kg dose for 7 days.; assay type: functional
Mus musculus [2] = assay: Average weight of the mouse after treating with 45 mg/kg dose for 1 day.; assay type: functional
L1210 [3] = assay: In vivo antitumor activity against L1210 leukemia in 5 mice measured as median survival range at 90 mg/kg; Value ranges from(15-24); assay type: functional, Mus musculus
Mus musculus [4] = assay: Average weight of the mouse after treating with 90 mg/kg dose for 1 day.; assay type: functional
Mus musculus [5] = assay: Average weight of the mouse after treating with 45 mg/kg dose for 7 days.; assay type: functional
L1210 [6] = assay: In vivo antitumor activity against L1210 leukemia in 18 mice measured as T/C values(days); T/C = 18/11; assay type: functional, Mus musculus
L1210 [7] = assay: In vivo antitumor activity against L1210 leukemia in 5 mice measured as Increased life span at 90 mg/kg.; assay type: functional; conditions: Mus musculus
L1210 [8] = assay: In vivo antitumor activity against L1210 leukemia in 5 mice measured as Increased life span at 45 mg/kg.; assay type: functional; conditions: Mus musculus
L1210 [9] = assay: In vivo antitumor activity against L1210 leukemia in 5 mice measured as median survival range at 45 mg/kg; Value ranges from(14-19); assay type: functional, Mus musculus
L1210 [10] = assay: In vivo antitumor activity against L1210 leukemia in 20 mice measured as T/C values(days); T/C = 20/11; assay type: functional, Mus musculus
L1210 [11] = assay: In vivo antitumor activity against L1210 leukemia in 5 mice measured as median survival range at 15 mg/kg; Value ranges from (14-18); assay type: functional, Mus musculus
L1210 [12] = assay: In vivo anti tumor activity against L1210 leukemia in 5 mice measured as Increased life span at 15 mg/kg; assay type: functional; conditions: Mus musculus
Mus musculus [13] = assay: Average weight change in mouse after treating with 7.5 mg/kg dose for 7 days.; assay type: functional
L1210 [14] = assay: In vivo anti tumor activity against L1210 leukemia in 5 mice measured as Increased life span at 7.5 mg/kg; assay type: functional; conditions: Mus musculus
Mus musculus [15] = assay: Average weight of the mouse after treating with 7.5 mg/kg dose for 1 day; assay type: functional
L1210 [16] = assay: In vivo antitumor activity against L1210 leukemia in 5 mice measured as median survival range at 7.5 mg/kg; Value ranges from (10-14); assay type: functional, Mus musculus
Mus musculus [17] = assay: In vivo antitumor activity against L1210 leukemia in 5 mice measured as weight change in 7 days(% weight); assay type: functional
Mus musculus [18] = assay: Average weight of the mouse after treating with 15 mg/kg dose for 1 day; assay type: functional
Mus musculus [19] = assay: Average weight of the mouse after treating with 20 mg/kg dose for 7 days.; assay type: functional
L1210 [20] = assay: In vivo antitumor activity against L1210 leukemia in 5 mice measured as Increased life span at 40 mg/kg.; assay type: functional; conditions: Mus musculus
L1210 [21] = assay: In vivo antitumor activity against L1210 leukemia in 5 mice measured as median survival range at 20 mg/kg; Value ranges from (14-23); assay type: functional, Mus musculus
Mus musculus [22] = assay: Average weight of the mouse after treating with 20 mg/kg dose for 1 day.; assay type: functional; set-up: unit not given here
L1210 [23] = assay: In vivo antitumor activity against L1210 leukemia in 5 mice measured as median survival range at 10 mg/kg; Value ranges from (13-18).; assay type: functional, Mus musculus
L1210 [24] = assay: In vivo antitumor activity against L1210 leukemia in 5 mice measured as Increased life span at 20 mg/kg.; assay type: functional; conditions: Mus musculus
L1210 [25] = assay: In vivo antitumor activity against L1210 leukemia in 5 mice measured as median survival range at 40 mg/kg; Value ranges from(15-23); assay type: functional, Mus musculus
Mus musculus [26] = assay: Average weight of the mouse after treating with 40 mg/kg dose for 1 day.; assay type: functional; set-up: unit not given here
L1210 [27] = assay: In vivo antitumor activity against L1210 leukemia in 5 mice measured as Increased life span at 10 mg/kg.; assay type: functional; conditions: Mus musculus
L1210 [28] = assay: In vivo antitumor activity against L1210 leukemia in 17 mice measured as T/C values; T/C = 17/9; assay type: functional, Mus musculus
Mus musculus [29] = assay: Average weight of the mouse after treating with 10 mg/kg dose for 7 day.; assay type: functional
Mus musculus [30] = assay: Average weight of the mouse after treating with 40 mg/kg dose for 7 day.; assay type: functional
Mus musculus [31] = assay: Average weight of the mouse after treating with 10 mg/kg dose for 1 day.; assay type: functional; set-up: unit not given here
L1210 [32] = assay: In vivo antitumor activity against L1210 leukemia in 5 mice measured as T/C values; T/C = 23/9; assay type: functional, Mus musculus
L1210 [33] = assay: In vivo antitumor activity against L1210 leukemia in 14 mice measured as T/C values; T/C = 14/9; assay type: functional, Mus musculus
L1210 [34] = assay: In vivo antitumor activity against L1210 leukemia in 5 mice measured as median survival range at 10 mg/kg; Value ranges from (10-15); assay type: functional, Mus musculus
L1210 [35] = assay: In vivo antitumor activity against L1210 leukemia in 12 mice measured as T/C values(days); T/C = 12/9; assay type: functional, Mus musculus
Mus musculus [36] = assay: Average weight change in mouse after treating with 20 mg/kg dose for 7 days.; assay type: functional; set-up: unit not given beside the values; conditions: 20 mg/kg
L1210 [37] = assay: In vivo antitumor activity against L1210 leukemia in 5 mice measured as median survival range at 20 mg/kg; Value ranges from (14-18); assay type: functional, Mus musculus
L1210 [38] = assay: In vivo anti tumor activity against L1210 leukemia in 5 mice measured as Increased life span at 15 mg/kg.; assay type: functional; conditions: Mus musculus
Mus musculus [39] = assay: Average weight of the mouse after treating with 30 mg/kg dose for 7 day.; assay type: functional
L1210 [40] = assay: In vivo antitumor activity against L1210 leukemia in 5 mice measured as median survival range at 30 mg/kg; Value ranges from(17-22).; assay type: functional, Mus musculus
L1210 [41] = assay: In vivo antitumor activity against L1210 leukemia in 5 mice measured as Increased life span at 30 mg/kg.; assay type: functional; conditions: Mus musculus
L1210 [42] = assay: In vivo antitumor activity against L1210 leukemia in 12 mice measured as T/C values; T/C = 12/9; assay type: functional, Mus musculus
Mus musculus [43] = assay: Average weight of the mouse after treating with 30 mg/kg dose for 1 day.; assay type: functional
Mus musculus [44] = assay: Average weight of the mouse after treating with 15 mg/kg dose for 1 day.; assay type: functional
L1210 [45] = assay: In vivo antitumor activity against L1210 leukemia in 5 mice measured as median survival range at 15 mg/kg; Value ranges from (12-14).; assay type: functional, Mus musculus
L1210 [46] = assay: In vivo antitumor activity against L1210 leukemia in 18 mice measured as T/C values; T/C = 18/9; assay type: functional, Mus musculus
Mus musculus [47] = assay: Average weight change in mouse after treating with 15 mg/kg dose for 7 days.; assay type: functional

## CCCCOC(=O)CCC(NC(=O)c1cc(Cl)c(N(C)Cc2cnc3nc(N)nc(N)c3n2)c(Cl)c1)C(=O)OCCCC (stereo not given)
Mus musculus [1]
  Weight change: 3.8
Mus musculus [2]
  Average weight: 25
L1210 [3]
  Range: 24
Mus musculus [4]
  Average weight: 27.8
Mus musculus [5]
  Weight change: 1
L1210 [6]
  T/C: 11
L1210 [7]
  ILS at 90 mg/kg: 82%
L1210 [8]
  ILS at 45 mg/kg: 64%
L1210 [9]
  Range: 19
L1210 [10]
  T/C: 11

## CCCCCCCCOC(=O)CCC(NC(=O)c1ccc(N(C)Cc2cnc3nc(N)nc(N)c3n2)cc1)C(=O)OCCCCCCCC (stereo not given)
L1210 [11]
  Range: 18
L1210 [12]
  ILS at 15 mg/kg: 66%
Mus musculus [13]
  Weight change: 0.4
L1210 [14]
  ILS at 7.5 mg/kg: 44%
Mus musculus [15]
  Average weight: 26.4
L1210 [16]
  Range: 14
Mus musculus [17]
  Weight change: 0.8
Mus musculus [18]
  Average weight: 25.2

## Cc1ccc(C)c(COC(=O)CCC(NC(=O)c2ccc(N(C)Cc3cnc4nc(N)nc(N)c4n3)cc2)C(=O)OCc2cc(C)ccc2C)c1 (stereo not given)
Mus musculus [19]
  Weight change: 0.7
L1210 [20]
  ILS at 40 mg/kg: 155%
L1210 [21]
  Range: 23
Mus musculus [22]
  Average weight: 22
L1210 [23]
  Range: 18
L1210 [24]
  ILS at 20 mg/kg: 111%
L1210 [25]
  Range: 23
Mus musculus [26]
  Average weight: 20.7
L1210 [27]
  ILS at 10 mg/kg: 88%
L1210 [28]
  T/C: 9
Mus musculus [29]
  Weight change: 1.6
Mus musculus [30]
  Weight change: 0.7
Mus musculus [31]
  Average weight: 23
L1210 [32]
  T/C: 9

## CCCCCOC(=O)CCC(NC(=O)c1ccc(N(C)Cc2cnc3nc(N)nc(N)c3n2)cc1)C(=O)OCCCCC (stereo not given)
L1210 [33]
  T/C: 14
L1210 [34]
  Range: 15
L1210 [35]
  T/C: 12
Mus musculus [36]
  Weight change: 0.6 and 0.4
Mus musculus [22]; 20 mg/kg
  Average weight: 21.5 and 20.8
L1210 [24]
  ILS at 20 mg/kg: 55%
L1210 [37]
  Range: 18
L1210 [27]
  ILS at 10 mg/kg: 33%

## CN(Cc1cnc2nc(N)nc(N)c2n1)c1ccc(C(=O)NC(CCC(=O)OCc2ccccc2)C(=O)OCc2ccccc2)cc1 (stereo not given)
L1210 [38]
  ILS at 15 mg/kg: 33%
Mus musculus [39]
  Weight change: 1.6
L1210 [40]
  Range: 22
L1210 [41]
  ILS at 30 mg/kg: 100%
L1210 [42]
  T/C: 9
Mus musculus [43]
  Average weight: 25.6
Mus musculus [44]
  Average weight: 25.8
L1210 [45]
  Range: 14
L1210 [46]
  T/C: 9
Mus musculus [47]
  Weight change: 0.4
